These results are taken from patent US20070092469A1, “Topically applied Glucosamine Sulfate and all its related, precursor, and derivative compounds significantly increases the skin's natural produciton of hyaluronic acid for the rejuvenation of healthier younger-looking skin; while PhosphatidylCholine is required to replace its deficiency caused by …” (priority 2005, published 2007).

Like-named read-outs stand apart in the source and are kept apart here.

For series [1] the following is noted: oral dose of Glucosamine Sulfate, humans; cited from earlier work.
The conditions of series [2]: topical; cited from earlier work.
Series [3] has as its system skin's Hyaluronic Acid. Briefly: Live clinical human experiments, one side of face, neck and hands treated, other side base (placebo) lotion. The conditions noted are these: 5% concentration, topical, versus placebo lotion on other side. Type of series: in vivo. An excerpt: In examining the prior art we found our patent to be unique: • 1. U.S. Pat. No. 5,391,373 (Mausner) is distinguished by its failure to use an adequate amount of Glucosamine in order to achieve the substrate concentration for the enzyme Hyaluronate Synthase to produce a sufficient quantity and concentration of Hyaluronic Acid necessary to achieve any meaningful change in the texture of the skin, including its ability to hold onto sufficient water to increase internal hydration. Their patent claims: “1. (d) about 0.001% to 0.1% of a carbohydrate-based complex comprising dextran, glycine, and Glucosamine;”. […] Their minimum range amount claimed is calculated as: 0.001% (0.00001) times 5% (0.05%) equals 0.0000005, which is 0.00005% and equals 5 one-hundred-thousandths of a gram per 100 milliliters, and is totally inconsequential for having any positive effect. […]

For series [4], the system named is solar lentinges. The conditions noted are these: cited from earlier work.
The conditions of series [5]: topical; cited from earlier work. The source holds these as a separate data set.
For series [6] the following is noted: oral, dog; cited from earlier work.
For series [7] the following is noted: simple diffusion, not active transport; cited from earlier work.

Regarding `N[C@H]1C(O)O[C@H](CO)[C@@H](O)[C@@H]1O.O=S(=O)(O)O` (stereo partly drawn) [Glucosamine Sulfate], the absorbed result in series [1] is on record as “about 90%”. Moreover, the “absorption through the skin” value in series [2] is listed as “much better absorbed into the body via the skin”. The “production of the skin's Hyaluronic Acid” value in series [3] is reported as “markedly enhancing”.

Consider Ascorbyl Glucosamine, for which the “effect on skin ("liver spot") pigmentation” value in series [4] is on record as “no positive effects”.

Consider “hyaluronic acid [600,000 Dalton molecular weight hyaluronic acid]”, for which, in series [5], the “absorption into the skin” value is “only a few percent”. As for “hyaluronic acid [250,000 Dalton sized hyaluronic acid]”, in series [5], the “absorption into the skin” value is “very low percentage”. Consider `N[C@@H]1[C@@H](O)[C@H](O)[C@@H](CO)O[C@@H]1O` [Glucosamine, 2-amino-2-deoxy-alpha-D-glucose], for which, in series [6], the absorbed is 87%. As for `CC(=O)N[C@H]1C(O)O[C@H](CO)[C@@H](O)[C@@H]1O` (stereo partly drawn) [N-acetylglucosamine, N-acetyl-D-Glucosamine], the “absorption through the skin” value in series [2] was “very poorly absorbed through the skin”. The oral absorption entry in series [7] is listed as “not well absorbed orally”.
